Laboratory results: US20240101563A1, “NOVEL COMPOUNDS” (AC Immune SA, priority 2022, published 2024)
Where a name gives a salt, the structure may show the parent alone. Read-outs that look alike come from different tables or passages of the source.

Test system: NLRP3 inflammasome pathway
Assay: NLRP3 inflammasome pathway activation assay, MSU stimulation, IL-1β HTRF
Type: cell-based
Details: MSU 200 μg/mL for 3 h, IL-1β release, read-out: IC50 Human monocyte-like cells MSU
Method: The following assays were used to determine the inhibitory activity of test compounds on the NLRP3 inflammasome pathway using common stimuli Nigericin (Invivogen) or monosodium urate crystals (MSU) (Invivogen).
Human monocyte-like cells were cultured in RPMI-1640 Glutamax medium supplemented with 10% heat inactivated FBS (Fetal Bovine Serum) and 50 U/mL penicillin-streptomycin (Life Technologies).
Human monocyte-like cells were seeded at 25000 per well in a 384-well plate and were differentiated overnight into macrophages with 10 ng/mL PMA (Phorbol Myristate Acetate). The following day, medium containing 10 ng/mL LPS (Lipopolysaccharide) was added. After 3 hours of LPS priming, concentrations of test compound in the range from […] were added 30 min prior to NLRP3 inflammasome pathway stimulation with Nigericin 3.75 μM or MSU 200 μg/mL for 3 h.
For IL-1p quantification, supernatants were analyzed using HTRF kit according to the manufacturer's instructions (Cisbio 62HIL1BPEH). Briefly, in a 384-well ProxiPlate™ microplate, 8 μl of sample was mixed, with 5 μl of Anti-IL1β Cryptate antibody (40×) and Anti-IL1β XL antibody (40×). Then, incubated overnight at RT. Reading was done using an EnVision Reader (PerkinElmer).
IC50 (concentration corresponding to 50% inhibition) were determined using GraphPad Prism 9.

[1] = Homo sapiens, 3 h, Table 7, PMA-differentiated, LPS-primed cells

In the case of `COc1ccc2c(n1)nc(-c1c(C)cc(Cl)cc1O)n2C(C)C` [Example 31, 5-chloro-2-(1-isopropyl-5-methoxy-1H-imidazo[4,5-b]pyridin-2-yl)-3-methylphenol], the IC50 [1] is reported as 100 to 1000 nM.
`COc1ccc2c(n1)nc(-c1ccc(C(F)(F)F)cc1O)n2C(C)C` [Example 35, 2-(1-isopropyl-5-methoxy-1H-imidazo[4,5-b]pyridin-2-yl)-5-(trifluoromethyl)phenol] was tested, and the IC50 [1] was 100 to 1000 nM.
For `CNc1ccc2c(n1)nc(-c1c(C)cc(C(F)(F)F)cc1O)n2C` [Example 3, 3-methyl-2-(1-methyl-5-(methylamino)-1H-imidazo[4,5-b]pyridin-2-yl)-5-(trifluoromethyl) phenol], the IC50 [1] was 100 to 1000 nM.
With `Cc1cc(Cl)cc(O)c1-c1nc2nc(O[C@@H]3CCN(C)C3)cnc2n1C` [Example 58, (R)-5-chloro-3-methyl-2-(1-methyl-5-((1-methylpyrrolidin-3-yl)oxy)-1H-imidazo[4,5-b]pyrazin-2-yl)phenol formate Salt] the IC50 [1] was less than 100 nM.
In the case of `Cc1cc(Cl)cc(O)c1-c1nc2nc(N3CCOCC3)c(F)cc2n1C` [Example 64, 5-chloro-2-(6-fluoro-1-methyl-5-morpholino-1H-imidazo[4,5-b]pyridin-2-yl)-3-methylphenol], the IC50 [1] is reported as 100 to 1000 nM.
With `Cn1c(-c2ccc(C(F)(F)F)cc2O)nc2nc(NCCO)ccc21` [Example 1, 2-(5-((2-hydroxyethyl)amino)-1-methyl-1H-imidazo[4,5-b]pyridin-2-yl)-5-(trifluoromethyl)phenol] the IC50 [1] was 100 to 1000 nM and the IC50 (Homo sapiens, 3 h, Table 8 (formula II′/II vs formula III)) was 100 to 500 nM.
`CNc1ccc2cn(-c3ccc(C(F)(F)F)cc3O)nc2n1` [Example 41, 2-[6-(methylamino)pyrazolo[3,4-b]pyridin-2-yl]-5-(trifluoromethyl)phenol] gave an IC50 [1] of 100 to 1000 nM.
`Cc1cc(C(F)(F)F)cc(O)c1-c1nc2nc(N3CCOCC3)cnc2n1C` [Example 61, 3-methyl-2-(1-methyl-5-morpholino-1H-imidazo[4,5-b]pyrazin-2-yl)-5-(trifluoromethyl)phenol] gave an IC50 [1] of less than 100 nM.
Compound `Cc1cc(C(F)(F)F)cc(O)c1-c1nc2nc(O[C@@H]3CCN(C)C3)ccc2n1C` [Example 28, (R)-3-methyl-2-(1-methyl-5-((1-methylpyrrolidin-3-yl)oxy)-1H-imidazo[4,5-b]pyridin-2-yl)-5-(trifluoromethyl)phenol] has an IC50 [1] of less than 100 nM.
In the case of `Cn1c(-c2ccc(C(F)(F)F)cc2O)nc2nc(NCC3(O)COC3)ccc21` [Example 54, 3-(((2-(2-hydroxy-4-(trifluoromethyl)phenyl)-1-methyl-1H-imidazo[4,5-b]pyridin-5-yl)amino)methyl)oxetan-3-ol], the IC50 [1] is reported as 100 to 1000 nM.
`COc1nc2c(nc1N[C@@H]1CCN(C)C1)nc(-c1c(C)cc(C(F)(F)F)cc1O)n2C` [Example 72, (R)-2-(6-methoxy-1-methyl-5-((1-methylpyrrolidin-3-yl)amino)-1H-imidazo[4,5-b]pyrazin-2-yl)-3-methyl-5-(trifluoromethyl)phenol] showed an IC50 [1] of less than 100 nM.
For `CN1CC[C@@H](Oc2cnc3c(n2)nc(-c2c(O)cc(Cl)cc2F)n3C)C1` [Example 87, 5-chloro-3-fluoro-2-[1-methyl-5-[(3R)-1-methylpyrrolidin-3-yl]oxy-imidazo[4,5-b]pyrazin-2-yl]phenol], the IC50 [1] was less than 100 nM.
Compound `Cc1cc(C(F)(F)F)cc(O)c1-c1nc2nc(NC3CCN(C)C3)ccc2n1C(C)C` (stereo not shown) [Example 10, 2-(1-isopropyl-5-((1-methylpyrrolidin-3-yl)amino)-1H-imidazo[4,5-b]pyridin-2-yl)-3-methyl-5-(trifluoromethyl)phenol] has an IC50 [1] of less than 100 nM.
For `Cc1cc(Cl)cc(O)c1-c1nc2nc(NC3CCC(F)(F)C3)ccc2n1C` (racemic) [Example 11, 5-chloro-2-(5-((3,3-difluorocyclopentyl)amino)-1-methyl-1H-imidazo[4,5-b]pyridin-2-yl)-3-methylphenol], the IC50 [1] was 100 to 1000 nM.
`CNc1ccc2c(n1)nc(-c1c(C)cc(C(F)(F)F)cc1O)n2C(C)C` [Example 15, 2-(1-isopropyl-5-(methylamino)-1H-imidazo[4,5-b]pyridin-2-yl)-3-methyl-5-(trifluoromethyl)phenol] was tested, and the IC50 [1] was 100 to 1000 nM.
For `Cc1cc(C(F)(F)F)cc(O)c1-c1nc2nc(NCC(C)(C)O)ccc2n1C` [Example 6, 2-(5-((2-hydroxy-2-methylpropyl)amino)-1-methyl-1H-imidazo[4,5-b]pyridin-2-yl)-3-methyl-5-(trifluoromethyl)phenol], the IC50 [1] was greater than 1000 nM.
`Cn1c(-c2ccc(Cl)cc2O)nc2nc(C(F)(F)F)ccc21` [Example 49, 5-chloro-2-(1-methyl-5-(trifluoromethyl)-1H-imidazo[4,5-b]pyridin-2-yl)phenol] showed an IC50 [1] of 100 to 1000 nM.
`CCn1c(-c2ccc(C(F)(F)F)cc2O)nc2nc(N[C@@H]3CCCN(C)C3)ccc21` [Example 12, (R)-2-(1-ethyl-5-((1-methylpiperidin-3-yl)amino)-1H-imidazo[4,5-b]pyridin-2-yl)-5-(trifluoromethyl)phenol] was tested, and the IC50 [1] was 100 to 1000 nM.
In the case of `COc1cnc2c(n1)nc(-c1c(C)cc(Cl)cc1O)n2C` [Example 59, 5-chloro-2-(5-methoxy-1-methyl-imidazo[4,5-b]pyrazin-2-yl)-3-methyl-phenol formate Salt], the IC50 [1] is reported as less than 100 nM.
Compound `OCCNc1ccc2cn(-c3ccc(C(F)(F)F)cc3O)nc2n1` [Example 48, 2-(6-((2-hydroxyethyl)amino)-2H-pyrazolo[3,4-b]pyridin-2-yl)-5-(trifluoromethyl)phenol] has an IC50 [1] of 100 to 1000 nM.
With `COc1ccc2cn(-c3ccc(C(F)(F)F)cc3O)nc2n1` [Example 42] the IC50 [1] was 100 to 1000 nM.
`Cc1cc(Cl)cc(O)c1-c1nc2nc(N3CCC(O)C3)cnc2n1C` (single isomer, unassigned) [Example 85A] was tested, and the IC50 [1] was less than 100 nM.
For `Cc1cc(C(F)(F)F)cc(O)c1-c1nc2nc(N3CCC(O)CC3)cnc2n1C` [Example 63, 1-(2-(2-hydroxy-6-methyl-4-(trifluoromethyl)phenyl)-1-methyl-1H-imidazo[4,5-b]pyrazin-5-yl)piperidin-4-ol], the IC50 [1] was less than 100 nM.
With `Cc1cc(C(F)(F)F)cc(O)c1-c1nc2nc(NC3CCN(C)C3)ccc2n1C` (single isomer, unassigned) [Example 18A, 3-methyl-2-(1-methyl-5-((1-methylpyrrolidin-3-yl)amino)-1H-imidazo[4,5-b]pyridin-2-yl)-5-(trifluoromethyl)phenol] the IC50 [1] was less than 100 nM.
`COc1nc2nc(-c3c(C)cc(C(F)(F)F)cc3O)n(C)c2cc1C(C)(C)O` [Example 57, 2-[6-(1-hydroxy-1-methyl-ethyl)-5-methoxy-1-methyl-imidazo[4,5-b]pyridin-2-yl]-3-methyl-5-(trifluoromethyl)phenol] showed an IC50 [1] of 100 to 1000 nM.
For `CCn1c(-c2ccc(C(F)(F)F)cc2O)nc2nc(NCCO)ccc21` [Example 16, 2-(1-ethyl-5-((2-hydroxyethyl)amino)-1H-imidazo[4,5-b]pyridin-2-yl)-5-(trifluoromethyl)phenol], the IC50 [1] was 100 to 1000 nM.
`Cn1c(-c2ccc(C(F)(F)F)cc2O)nc2nc(O[C@H]3CC[C@H](O)C3)ccc21` (single isomer, unassigned) [Example 37B, trans-2-(5-((3-hydroxycyclopentyl)oxy)-1-methyl-1H-imidazo[4,5-b]pyridin-2-yl)-5-(trifluoromethyl)phenol] showed an IC50 (Table 7, PMA-differentiated, LPS-primed cells) of 100 to 1000 nM.
With `Cc1cc(C(F)(F)F)cc(O)c1-c1nc2nc(OCCO)ccc2n1C(C)C` [Example 33, 2-(5-(2-hydroxyethoxy)-1-isopropyl-1H-imidazo[4,5-b]pyridin-2-yl)-3-methyl-5-(trifluoromethyl)phenol] the IC50 [1] was 100 to 1000 nM.
`Cc1cc(Cl)cc(O)c1-c1nc2nc(N3CC[C@@H]4CCN(C)C[C@@H]43)cnc2n1C` (relative stereo) [Example 77A, 5-chloro-3-methyl-2-[1-methyl-5-[rel-(3aS,7aR)-6-methyl-3,3a,4,5,7,7a-hexahydro-2H-pyrrolo[2,3-c]pyridin-1-yl]imidazo[4,5-b]pyrazin-2-yl]phenol] showed an IC50 [1] of less than 100 nM.
Work on `Cc1cc(C(F)(F)F)cc(O)c1-c1nc2nc(N(C)[C@@H]3CCN(C)C3)cnc2n1C` [Example 60, (R)-3-methyl-2-(1-methyl-5-(methyl(1-methylpyrrolidin-3-Yl)amino)-1H-imidazo[4,5-b]pyrazin-2-yl)-5-(trifluoromethyl)phenol formate Salt] yielded an IC50 [1] of less than 100 nM.
With `Cc1cc(Cl)cc(O)c1-c1nc2nc(N3CCC4CCN(C)CC43)cnc2n1C` (racemic) [Example 76, 5-chloro-3-methyl-2-[1-methyl-5-(6-methyl-3,3a,4,5,7,7a-hexahydro-2H-pyrrolo[2,3-c]pyridin-1-yl)imidazo[4,5-b]pyrazin-2-yl]phenol] the IC50 [1] was less than 100 nM.
For `CN1CC[C@@H](Nc2ccc3c(n2)nc(-c2ccc(C(F)(F)F)cc2O)n3C)C1` (single isomer, unassigned) [Example 19, 2-(1-methyl-5-((1-methylpyrrolidin-3-yl)amino)-1H-imidazo[4,5-b]pyridin-2-yl)-5-(trifluoromethyl)phenol], the IC50 [1] was less than 100 nM.
With `Cc1cc(C(F)(F)F)cc(O)c1-c1nc2nc(OC3CCN(C)C3)ncc2n1C` (racemic) [Example 55, 3-methyl-2-(7-methyl-2-((1-methylpyrrolidin-3-yl)oxy)-7H-purin-8-yl)-5-(trifluoromethyl)phenol] the IC50 [1] was 100 to 1000 nM.
